Here are results for eleven molecules from publication PMC8698320, “Inhibition of MurA Enzyme from Escherichia coli and Staphylococcus aureus by Diterpenes from Lepechinia meyenii and Their Synthetic Analogs” (Antibiotics, 2021).

Molecules are shown by their SMILES. In brackets after ≈: the same amount, converted by molar mass. Several values for one entry are separate records, joined by “and”; a condition that tells them apart may be missing. Equal values may be shown once. Read-outs that look alike come from different tables or passages of the source.

One assay has as its target T1, Escherichia coli MurA (Escherichia coli, UniProt P0A749).
T1 construct: made in house; host or cells: E. coli
As to the kind of experiment: MurA inhibition, colorimetric malachite green method. Type of assay: biochemical. Particulars: for remaining activity at 100 µM: 10 min, residual activity at 100 µM, read-out: RA % Escherichia coli MurA. As to the method:
(§1) Polymyxin, UDP-GlcNAc, D-Ala-D-Ala, PEP, ATP and Hepes were purchased from Sigma-Aldrich Co. (St Louis, MO, USA). UDP-MurNAc-L-Ala-D-Glu-m-DAP was obtained from BACWAN facility, School of Life Sciences, The University of Warwick, UK. MurA from E. coli and S. aureus were recombinant, expressed in E. coli, while MurF from E. coli and S. aureus were recombinant expressed in E. coli.
(§2) MurA inhibition was determined with the colorimetric malachite green method in which the release of orthophosphate generated during the reaction is measured. Briefly, 2.5 µL of each tested compound previously dissolved in DMSO at a concentration of 100 µM, were added in duplicate to 50 µL of the reaction mixture containing 50 mM HEPES pH 7.8, 0.005% Triton X-114, 200 µM UDP-GlcNAc, 100 µM PEP and purified MurA (200 nM) diluted in 50 mM Hepes at pH 7.8. The 50 µL reaction mixture for MurF inhibitory assay contained 50 mM Hepes pH 8.0, 50 mM MgCl2, 0.005% Triton X-114, 600 µM D-Ala-D-Ala, 100 µM UDP-MurNAc-L-Ala-D-Glu-m-DAP, 500 µM ATP and purified MurF (8 nM). Time-dependent inhibition assays were also performed. MurA was preincubated with substrate UDP-GlcNAc and target compounds for 10 min at 37 °C, and then the reaction was started by the addition of the second substrate PEP, resulting in a mixture with a final volume of 50 µL as above described. MurF was preincubated with compounds for 10 min at 37 °C, and the reaction was started by the addition of the above-mentioned substrates to get a mixture with a final volume of 50 µL, as already described. In both experiments, after incubation for 15 min at 37 °C, the reaction was stopped by adding Biomol® reagent (100 µL, Enzo Life Sciences, Inc., Farmingdale, NY, USA). The absorbance was measured at 650 nm after 5 min in a microplate reader (Synergy H4). The final concentration of DMSO in the reaction mixture was 5% (v/v). Fosfomycin was used as a reference in MurA assay. The percentage of RA was calculated in comparison to negative controls containing only 5% DMSO. […] The results are expressed as mean ± standard error.

The next assay has as its system E. coli (ATCC 25922). As to the kind of experiment: Antibacterial susceptibility testing, MIC by broth microdilution, alone or with polymyxin B. The conditions noted are these: for MIC: Escherichia coli, read-out: MIC against E. coli; for MIC against E. coli with polymyxin B: with polymyxin B at sub-inhibitory concentration (half of the MIC, 0.49 µg/mL), permeabilized E. coli. Type of assay: cell-based, Escherichia coli. As to the method: Overnight subcultures of the test organism carried out on plate count agar medium (PCA) were used.
After 24 h incubation at 37 °C with continuous shaking, absorbance was measured with an iMark micro-plate reader (Bio-Rad, Hercules, CA, USA) at 655 nm. Compound 1 was dissolved in DMSO, while compounds 4 and 6 were dissolved in ethanol or acetonitrile (ACN), respectively. Negative controls containing dissolution solvents at a final concentration of 2% or polymyxin B at 0.49 µg/mL were simultaneously carried out, and the growth was compared to the viability control, which contained only a culture medium. […] The large size of this glycopeptide antibiotic avoids its entrance into Gram-negative bacteria, while the addition of polymyxin B overcomes this inconvenience.
For orientation: Broth dilution looks for growth in wells or tubes with falling amounts of substance.

Assay [1] addresses T2, Staphylococcus aureus MurA (Staphylococcus aureus, UniProt Q931H5).
T2 construct: made in house; host or cells: E. coli
T2 sequence (Q931H5 1-421): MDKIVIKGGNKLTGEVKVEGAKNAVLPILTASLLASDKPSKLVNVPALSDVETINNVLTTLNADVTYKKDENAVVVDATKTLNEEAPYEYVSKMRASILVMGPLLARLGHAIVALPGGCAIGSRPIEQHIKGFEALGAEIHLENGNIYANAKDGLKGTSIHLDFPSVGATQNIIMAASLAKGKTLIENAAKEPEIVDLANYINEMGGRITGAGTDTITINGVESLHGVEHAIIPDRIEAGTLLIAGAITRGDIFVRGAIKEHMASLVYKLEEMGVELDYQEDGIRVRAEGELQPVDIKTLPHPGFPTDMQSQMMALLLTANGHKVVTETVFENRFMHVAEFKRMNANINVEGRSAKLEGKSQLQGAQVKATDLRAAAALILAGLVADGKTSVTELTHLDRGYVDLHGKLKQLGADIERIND
Briefly: biochemical. Particulars: for remaining activity at 100 µM: 10 min. As to the method: as §1
as §2, with “Briefly, 2.5 µL of each tested compound previously dissolved in DMSO at a concentration of 100 µM, were added in duplicate to 50 µL of the reaction mixture containing 50 mM HEPES pH 7.8, 0.005% Triton X-114, 200 µM UDP-GlcNAc, 100 µM PEP and purified MurA (200 nM) diluted in 50 mM Hepes at pH 7.8. The 50 µL reaction mixture for MurF inhibitory assay contained 50 mM Hepes pH 8.0, 50 mM MgCl2, 0.005% Triton X-114, 600 µM D-Ala-D-Ala, 100 µM UDP-MurNAc-L-Ala-D-Glu-m-DAP, 500 µM ATP and purified MurF (8 nM).” left out

For assay [2], the system named is methicillin-sensitive and resistant Staphylococcus aureus (MSSA and MRSA). Particulars: growth curves of treated MSSA and MRSA; cited from earlier work.
The mark [3] stands for this setting: time of preincubation: 10 min, read-out: IC50 Escherichia coli MurA (converted).
[4] abbreviates: ATCC25922, compound alone, 24 h, 37 °C, Mueller–Hinton broth.
Where [5] appears, read: time of preincubation: 10 min, read-out: IC50 Staphylococcus aureus MurA (converted).
The mark [6] stands for this setting: IC50 Escherichia coli MurA, time of preincubation: 10 min.
[7] abbreviates: IC50 Staphylococcus aureus MurA, time of preincubation: 10 min.
Setting [8] is: residual activity at 100 µM, time of preincubation: 10 min, read-out: RA % Staphylococcus aureus MurA.

T1 sequence (P0A749 whole entry): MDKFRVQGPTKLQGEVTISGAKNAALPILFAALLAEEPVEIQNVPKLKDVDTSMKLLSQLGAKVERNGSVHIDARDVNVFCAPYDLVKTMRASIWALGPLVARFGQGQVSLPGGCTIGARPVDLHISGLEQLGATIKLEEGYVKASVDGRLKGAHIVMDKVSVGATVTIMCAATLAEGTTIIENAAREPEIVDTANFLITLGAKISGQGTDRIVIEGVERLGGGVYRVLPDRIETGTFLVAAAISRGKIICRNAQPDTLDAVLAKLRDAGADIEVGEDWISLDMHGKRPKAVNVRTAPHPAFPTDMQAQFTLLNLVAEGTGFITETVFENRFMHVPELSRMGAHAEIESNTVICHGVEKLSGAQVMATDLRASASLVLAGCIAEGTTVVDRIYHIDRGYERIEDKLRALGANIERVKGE

What is called IC50 is the concentration at which inhibition is half-maximal. As usually defined, the MIC is the least concentration at which growth counts as inhibited. In the case of `CC(C)c1cc2c(c(O)c1O)[C@@]13CCCC(C)(C)[C@@H]1C[C@@H]2OC3=O` [Compound 1, carnosol], the IC50 at Escherichia coli MurA (time of preincubation = 0 min, read-out: IC50 Escherichia coli MurA (converted)) was 66 µM; at Escherichia coli MurA (setting [3]), 2.8 µM; in assay [1] (time of preincubation = 0 min, read-out: IC50 Staphylococcus aureus MurA (converted)), 61 µM; in assay [1] (setting [5]) it was 1.1 µM. In the assay with E. coli (ATCC 25922) (setting [4]), the MIC was > 250 µg/mL. The “MIC against E. coli with polymyxin B” value against E. coli (ATCC 25922) came to 125 µg/mL.
Turning to `CC(C)c1cc2c(c(O)c1O)[C@@]13CCCC(C)(C)[C@@H]1[C@H](OC3=O)[C@H]2O` [Compound 2, rosmanol], the figures for the IC50 (on Escherichia coli MurA (setting [3]); in assay [1] (setting [5])) were 12.9 µM and 5.7 µM, respectively.
Take `CC(C)c1cc2c(c(O)c1O)[C@@]1(C(=O)O)CCCC(C)(C)[C@@H]1CC2` [Compound 3, carnosic acid]: the IC50 at Escherichia coli MurA (setting [6]) was 25 µM and 25.1 µM; in assay [1] (setting [7]) it was 12 µM and 12.3 µM.
As to `COC(=O)[C@]12CCCC(C)(C)[C@@H]1CCc1cc(C(C)C)c(O)c(O)c12` [Compound 4, 20-methyl carnosate], the remaining activity at 100 µM on Escherichia coli MurA (time of preincubation: 10 min) fell in the range of 0 to 28%; in assay [1] (read-out: RA % Staphylococcus aureus MurA, residual activity at 100 µM, time of preincubation: 10 min) it was 0 to 28%. Further, the IC50 at Escherichia coli MurA (IC50 Escherichia coli MurA, time of preincubation = 0 min) was 48 µM; at Escherichia coli MurA (setting [6]) it was 2.8 µM; in assay [1] (IC50 Staphylococcus aureus MurA, time of preincubation = 0 min), 67 µM; in assay [1] (setting [7]) it was 3.4 µM. Besides, the minimum inhibitory concentration (MIC) in the assay with E. coli (ATCC 25922) (setting [4]) was > 250 µg/mL. For the same molecule, the “MIC against E. coli with polymyxin B” value in the assay with E. coli (ATCC 25922) is listed as 3.9 µg/mL.
Consider `CC(C)c1cc2c3c(c1O)OC(=O)[C@@]31CCCC(C)(C)[C@@H]1CC2` [Compound 6, carnosic acid-γ-lactone], for which the concentration for half-maximal inhibition (IC50) was 4.8 µM at Escherichia coli MurA (setting [6]) and 7.9 µM in assay [1] (setting [5]). Also, in the assay with E. coli (ATCC 25922) (setting [4]), the MIC is > 250 µg/mL. Also, the “MIC against E. coli with polymyxin B” value with E. coli (ATCC 25922) came out at 125 µg/mL.
On to `CC(C)c1cc2c(cc1O)[C@@]1(C)CCC[C@@](C)(C(=O)O)[C@@H]1CC2` [Compound 9, 12-hydroxy-dehydroabietic acid], for which the IC50 on Escherichia coli MurA (setting [3]) is 49.4 µM; in assay [1] (setting [7]), 55.2 µM.
In the case of `COC(=O)[C@]1(C)CCC[C@]2(C)c3cc(O)c(/C(C)=N/O)cc3CC[C@@H]12` [Compound 12], in assay [2], the “delay/reduction in the growth rate of MSSA and MRSA, until time” value was “up to 6 h”. Moreover, the remaining activity at 100 µM in assay [1] (setting [8]) is 72 to 100%.
Regarding `CC/C(=N\O)c1cc2c(cc1O)[C@@]1(C)CCC[C@@](C)(C(=O)OC)[C@@H]1CC2` [Compound 13], the remaining activity at 100 µM in assay [1] (setting [8]) lay within 72 to 100%.
Same read-out and setting: in the case of `COC(=O)[C@]1(C)CCC[C@]2(C)c3cc(O)c(/C(C)=N/O)cc3/C(=N/O)C[C@@H]12` [Compound 14] it was 72 to 100%.
On to `CN[C@H](CC(C)C)C(=O)N[C@H]1C(=O)N[C@@H](CC(N)=O)C(=O)N[C@H]2C(=O)N[C@H]3C(=O)N[C@H](C(=O)N[C@H](C(=O)O)c4cc(O)cc(O)c4-c4cc3ccc4O)[C@H](O)c3ccc(c(Cl)c3)Oc3cc2cc(c3O[C@@H]2O[C@H](CO)[C@@H](O)[C@H](O)[C@H]2O[C@H]2C[C@](C)(N)[C@H](O)[C@H](C)O2)Oc2ccc(cc2Cl)[C@H]1O` [Vancomycin, vancomycin, reference compound], for which the MIC in the assay on E. coli (ATCC 25922) (ATCC25922, 24 h) was determined as 250 µg/mL (≈ 173 µM). Besides, in the assay on E. coli (ATCC 25922), the “MIC against E. coli with polymyxin B” value is reported as 62.5 µg/mL.
For the molecule `C[C@@H]1O[C@@H]1P(=O)(O)O` [fosfomycin, reference compound], the remaining activity at 100 µM (on Escherichia coli MurA (time of preincubation: 10 min); in assay [1] (setting [8])) was 0% in each case. In addition, the IC50 on Escherichia coli MurA (setting [6]) is 0.21 µM; in assay [1] (setting [5]), 0.3 µM.
